Results published in US20100197625A1, “SYNTHETIC LIPOPHILIC INOSITOL GLYCANS FOR TREATMENT OF CANCER AND GLUCOSE-METABOLISM DISORDERS” (priority 2006, published 2010).

How the values were obtained:
[1] = test system: db/db mice; assay: Intraperitoneal IG1 for 7 days, db/db mice; assay type: in vivo; conditions: intraperitoneal for every 7 days, data not shown
Experimental: (§1) Male C57BL/6 mice were housed individually and given free access to a standard diet (65% carbohydrate, 4% fat, and 24% protein) or a high-fat diet (Quick Fat; 60.2% carbohydrate, 15.3% fat, and 24.5% protein; Clea Japan, Tokyo, Japan), starting at 5 weeks of age, for 5 weeks. Db/db mice also were housed individually and given free access to a standard diet. C57BL/6 mice at 5 weeks of age, were received a single dose of 75 μg/g body weight streptozotoxin (STZ). 7 days after injections, the mice, whose fasting plasma glucose concentrations were over 400 mg/dl, were used as STZ-diabetic mice. […]
(§2) Frozen livers were homogenized, and triglycerides were extracted with CHCl3:CH3OH (2:1, vol:vol), dried and resuspended in 2-propanol (17). Triglyceride contents were measured using Lipidos liquid (TOYOBO, Osaka, Japan). […] Glycogen content was determined by the phenol-sulfuric acid spectrophotometric method at 490 nm (18) and expressed as micrograms of glycogen per milligram of liver.
(§3) Blood glucose was assayed with Glucose Ace (Sanwa Kagaku Kenkyusho, Nagoya, Japan). Serum insulin and leptin were determined with ELISA kits (Morinaga Institute of Biological Science, Yokohama, Japan). Serum adiponectin and tumor necrosis factor-α (TNF-α) concentrations were measured with an ELISA kit (Ohtsuka Pharmaceutical, Tokyo, Japan) and a TNF-α assay kit (Amersham Biosciences, Uppsala, Sweden), respectively. […]

[2] = test system: 3T3-L1 adipocytes; assay: Lipogenesis in 3T3-L1 adipocytes; assay type: cell-based, mouse; conditions: 10-1000 μM
Experimental: (§4) 3T3-L1 fibroblasts were maintained in Dulbecco's modified Eagle's medium (DMEM) with 25 mM glucose plus 10% fetal bovine serum (FBS). Following 2 days at confluence, differentiation was initiated by the addition of DMEM containing 10% FBS, 167 nM insulin, […] dexamethasone, and 0.5 mM isobutylmethylxanthine. Three days later, the medium was replaced with DMEM plus 10% FBS and 167 nM insulin. After 2 more days, the medium was switched to DMEM plus 10% fetal bovine serum. Adipocytes were used 6-14 days after completion of the differentiation protocol, when >90% of the cells expressed the adipocyte phenotype. Prior to experiments, cells were washed two times with DMEM medium containing 5 mM glucose, 0.2% bovine serum albumin, 25 mM Hepes (pH 7.4), 100 units/ml penicillin, 100 units/ml streptomycin and 0.29 mg/ml glutamine, and were incubated in the same medium for 2 h. Glycogen and lipid synthesis were measured in 24-well dishes. […] The lipids were then extracted overnight with 5 ml of Betafluor (National Diagnostics), and glucose incorporation into lipid was measured by scintillation counting. 400 μl of the cell suspension was added to 600 μl of 50% KOH, and glycogen was precipitated and radioactivity was counted by a liquid scintillation counter

[3] = test system: AGS; assay: Cell proliferation / cell death assay, AGS; assay type: cell-based, human; conditions: 10-100 μM
Experimental: (§5) Human pancreatic cancer cell lines (Panc-1, MiaPaca2, BXPC3, Aspc 1), human hepatoma cell line (HuH7), human gastric cancer cell lines (AGS, MKN45), human colon cancer cell line (CoCM-1), human mammary cancer cell line (MCF-7), human neuroblastoma (SH-SY5Y), human prostate cancer cells (PC3), and murine Ehrlich ascites cancer cells and mouse 3T3-L1 fibroblasts were obtained from American Type Culture Collection (Rockville, Md., USA). The cancer cells were cultured in RPMI 1640 containing 10% fetal calf serum. Cultures were maintained at 37° C. in a humidified atmosphere of 5% CO2.
(§6) Cell proliferation assays were performed with the CellTiter 96 AQueous One Solution Cell Proliferation Assay kit according to the manufacturer's instructions (Promega, Madison, Wis., USA). Briefly, 5×10^3 cells/well in medium were placed onto 96-well plates. IGs were added to cellular cultures at final concentrations of 0, 1, 10, and 100 μM. Cultures were incubated for 3 days or 7 days and then added to 20 μL/well of CellTiter 96 AQueous One Solution Reagent, which contains a tetrazolium compound, 3-(4,5-dimethylthiazol-2-yl)-5-(3-carboxymethoxyphenyl)-2-(4-sulfophenyl)-2H-tetrazolium, an inner salt; MTS was added to the culture medium. After incubating the plate for 1 h in a CO2 incubator, absorbance at 490 nm was recorded with a 96-well plate reader.

[4] = test system: Panc-1 cells; assay: Lactate production in Panc-1 cells; assay type: cell-based, human; conditions: 1 hour incubation in serum free media
Experimental: as §5

[5] = test system: human normal cultured cells; assay: Proliferation of human normal cultured cells; assay type: cell-based; conditions: 1-100 μM, data not shown
Experimental: Human primary culture cells, dermal fibroblasts, epidermal keratinocytes and umbilical vein endothelial cells were purchased from Cell Applications (San Diego, Calif., USA) and cultured according to the manufacturer's instructions.
as §6

[6] = test system: STZ-diabetic mice; assay: Intraperitoneal IG1 for 7 days, STZ-diabetic mice; assay type: in vivo
Experimental: as §1, §2, §3

[7] = test system: 3T3-L1 adipocytes; assay: Glycogen synthesis in 3T3-L1 adipocytes; assay type: cell-based, mouse; conditions: 10-1000 μM
Experimental: as §4

[8] = test system: C57B/6 mice on high-fat diets; assay: Intraperitoneal IG1 for 7 days, mice on high-fat diets; assay type: in vivo
Experimental: Male C57BL/6 mice were housed individually and given free access to a standard diet (65% carbohydrate, 4% fat, and 24% protein) or a high-fat diet (Quick Fat; 60.2% carbohydrate, 15.3% fat, and 24.5% protein; Clea Japan, Tokyo, Japan), starting at 5 weeks of age, for 5 weeks. Db/db mice also were housed individually and given free access to a standard diet. C57BL/6 mice at 5 weeks of age, were received a single dose of 75 μg/g body weight streptozotoxin (STZ). 7 days after injections, the mice, whose fasting plasma glucose concentrations were over 400 mg/dl, were used as STZ-diabetic mice. Animal study protocols were in accordance with the institutional guidelines for animal experiments at Tohoku University.
Frozen livers were homogenized, and triglycerides were extracted with CHCl3:CH3OH (2:1, vol:vol), dried and resuspended in 2-propanol (17). Triglyceride contents were measured using Lipidos liquid (TOYOBO, Osaka, Japan). Glycogen was isolated from 30-50 mg of frozen liver by dissolving the tissue in 30% potassium hydroxide saturated with Na2SO4 for 30 min at 100° C., followed by ethanol precipitation. Glycogen content was determined by the phenol-sulfuric acid spectrophotometric method at 490 nm (18) and expressed as micrograms of glycogen per milligram of liver.
Blood glucose was assayed with Glucose Ace (Sanwa Kagaku Kenkyusho, Nagoya, Japan). Serum insulin and leptin were determined with ELISA kits (Morinaga Institute of Biological Science, Yokohama, Japan). Serum adiponectin and tumor necrosis factor-α (TNF-α) concentrations were measured with an ELISA kit (Ohtsuka Pharmaceutical, Tokyo, Japan) and a TNF-α assay kit (Amersham Biosciences, Uppsala, Sweden), respectively. Serum total cholesterol, triglyceride, and FFA concentrations were determined with a Cholescolor liquid, Lipidos liquid (TOYOBO, Osaka, Japan), and NEFA C (Wako Pure Chemical, Osaka, Japan) kits, respectively.
Glucose tolerance was assessed with intraperitoneal glucose tolerance. Glucose tolerance tests were performed on fasted (16 h) mice. Mice were given intraperitoneal glucose (2 g/kg body wt), and blood glucose was assayed immediately before and at 15, 30, 60, and 120 min after administration.

[9] = test system: human colon cancer cells (CoCM-1); assay: Cell proliferation / cell death assay, CoCM-1; assay type: cell-based; conditions: CoCM-1, 10-100 μM
Experimental: as §5, §6

[10] = high fat-diets, IG1 1 mg, 7 days, Mean ± SD (n = 6)

CCCCCCCCCCCCCCCC(=O)O[C@@H]1C(O)C(O)[C@H](O)C(O[C@H]2OC(CO)[C@@H](O)[C@H](O)C2N)C1O (stereo in doubt) [IG1, 2-Amino-2-deoxy-α-D-glucopyranosyl-(1→6)-2-palmitoyl-D-myo-inositol]
glucose tolerance [1]: improves glucose tolerance
hepatic and muscular glycogen synthesis [1]: increases hepatic and muscular glycogen synthesis
lipogenesis [2]: stimulates
rapid cancer cell death [3]: rapid cancer cell death was demonstrated
lactate production (aerobic glycolysis) [4]: inhibits lactate production
proliferation of human normal cultured cells [5]: did not affect the proliferation
hepatic and muscular glycogen synthesis ([6]; intraperitoneal 7 days, data not shown): increases hepatic and muscular glycogen synthesis
fasting plasma glucose concentrations ([6]; intraperitoneal, 0.3 mg per mice, for every 7 days): significantly reduced fasting plasma glucose concentrations
glycogen synthesis [7]: stimulates
hepatic and muscular glycogen contents ([8]; after 7 days, data not shown): increases hepatic and muscular glycogen contents
hepatic triglyceride contents ([8]; after 7 days, data not shown): decreases hepatic triglyceride contents
Adiponectin [8, 10]: 50.4 ± 4.8 µg/mL
Body weight [8, 10]: 32.1 ± 1.8 g
Fasting plasma glucose [8, 10]: 62.8 ± 6.3 mg/dL
Fasting plasma insulin [8, 10]: 0.44 ± 0.19 ng/mL
Food intake [8, 10]: 2.93 ± 0.37 g/day
Leptin [8, 10]: 17.3 ± 5.4 ng/mL
NEFA [8, 10]: 0.78 ± 0.18 mEq/l
TNF-1α [8, 10]: 33.7 ± 4.4 pg/mL
Total cholesterol [8, 10]: 177.9 ± 24.6 mg/dL
Triglyceride [8, 10]: 26.2 ± 4.4 mg/dL
glucose tolerance ([8]; intraperitoneal, 1 mg per mice, for every 7 days): significantly improved glucose tolerance
rapid cancer cell death [9]: rapid cancer cell death was demonstrated
